The text below walks through data of PMC9143821, “Design and Synthesis of a Novel 4-aryl-N-(2-alkoxythieno [2,3-b]pyrazine-3-yl)-4-arylpiperazine-1-carboxamide DGG200064 Showed Therapeutic Effect on Colon Cancer through G2/M Arrest” (Pharmaceuticals, 2022).

Data set [1] is described as follows: Pharmacokinetics in SD rats. Format: in vivo. The conditions noted are these: male, Sprague-Dawley, rat, plasma. The method, then: Sprague–Dawley rats (adult males, 250–300 g) were fasted overnight, and the femoral vein (for iv administration of the compound) and jugular vein (for blood sampling) of each rat were cannulated with polyethylene tubing. The selected compounds dissolved in 30% polyethylene glycol (PEG) in saline were administered either intravenously or orally. At various time points after administration, blood samples (0.5 mL) were collected from the jugular vein, transferred to heparin-coated tubes, centrifuged to separate off the plasma. The plasma was stored at −80 °C until assayed. Compound concentrations in plasma were determined by LC/MS/MS analysis (API4000 mass spectrometer, Applied Biosystem, Waltham, MA, USA). Pharmacokinetic parameters were analyzed using the WinNonlin software program. The area under the curve (AUC) was calculated using the trapezoidal rule extrapolated to infinity. The terminal elimination half-life, systemic clearance, and volume of distribution at steady state were determined. The extent of absolute oral bioavailability (F) was estimated by comparing the AUC values after intravenous and oral administration of the compounds.

Data set [2] in a line: Maximum tolerated dose evaluation, 2 weeks. Format: in vivo. The note with it: 150 mg/kg oral administration, 2-week evaluation.
Another data set deals with HCT116 cells. As to the kind of experiment: FACS analysis of cell cycle distribution. The note with it: HCT116, different concentrations, 6 h. Format: cell-based, human. The procedure: Many anticancer drugs induce apoptosis through programmed signaling in tumor cells. To test whether the newly developed 4-phenyl-N-(thieno[2,3-b]pyrazin-3-yl)piperazine-1-carboxamide derivatives could induce apoptosis, we conducted a FACS analysis of HCT116 cells with the representative compound 7c or DGG200064. Cell cycle distribution of HCT116 cells was investigated with different concentrations of DGG200064 for 6 h. […] Additionally, DGG200064 was tested for induced G2/M arrest in the other types of colon cancer cells in concentrations of 50 nM for 6 h (Figure 2b).
A colon cancer cells were trypsinized and fixed in 70% (vol/vol) ethanol for DNA staining. For cell cycle analysis, fixed cells were washed with PBS and subsequently resuspended in Propidium Iodide (PI)/RNase staining solution (0.05 mg/mL PI, 0.1 mg/mL RNase A in PBS). FACS analysis was performed using FACSCanto II (BD Biosciences, San Jose, CA, USA).

Another data set concerns HCT116 and DLD1 cells. The data set can be described thus: Immunoblotting of cell cycle and FBXW7 substrate proteins. Format: cell-based, human. The note with it: 6 h. The method, then: HCT116 and DLD1 cells were exposed to increasing concentrations of DGG200064 (0, 10, 50, 100 nM) for 6 h. […] Moreover, there were increased levels of c-Jun by DGG200064 (50 nM) treatment in other 6-colon cancer cells (Figure S1, Supplementary Materials). c-Jun is a component of the transcription factor activator protein 1 (AP-1), which is activated by a variety of extracellular stimuli, such as growth factors and UV irradiation. In cancer cells, activation of c-Jun promotes down-stream target gene transcription, and it is involved in cell proliferation, growth, division, and apoptosis. […] To test whether DGG200064 could induce G2/M cell cycle arrest through the increasing of c-Jun level, the two genes were silenced using c-Jun siRNAs and treated with DGG200064 in HCT116 and DLD1 cells (Figure 3c). When c-Jun was silenced, the amount of cyclin B protein treated by DGG200064 decreased. […]
The whole-cell lysate was prepared using Radioimmunoprecipitation assay buffer (RIPA buffer) prepared in 50 mM Tris-HCl, pH 8.0, with 150 mM sodium chloride, 1.0% Igepal CA-630 (NP-40), 0.5% sodium deoxycholate, 0.1% sodium dodecyl sulfate, protease inhibitor cocktail, and phosphatase inhibitor cocktail. […] Membranes were washed five times with TBST, and chemiluminescence was detected using Westsave™ (Abfrontier, Seoul, Korea). […]
For orientation: In western blotting, separated proteins are transferred to a membrane and probed.

The structures appear in SMILES notation. Read-outs that look alike come from different tables or passages of the source.

What is called AUC(0-inf) is the area under the concentration-time curve extrapolated to infinity. Read a high AUC(0-inf) as more exposure. One may read the AUC(0-t) as the area under the concentration-time curve up to a stated or last time point. Read a low AUC(0-t) as low exposure. In general, Cmax refers to the highest concentration seen after dosing. In general, Tmax refers to the time from dosing to the highest level. One may read the clearance as a measure of how efficiently the substance is removed, as volume per time. Read a high clearance as a high capacity for elimination. A word on the half-life: it is the time needed for the level to fall by half in the phase considered. Read a high half-life as slow loss. As to `COc1cc(OC)cc(N2CCN(C(=O)Nc3nc4sccc4nc3OC)CC2)c1` [Compound 7c, 4-(3,5-Dimethoxyphenyl)-N-(2-methoxythieno[2,3-b]pyrazin-3-yl)piperazine-1-carboxamide], in data set [1] (SD rats, IV, 1 mg/kg), the AUC(0-inf) came to 708 ng·h/mL, the AUC(0-t) was 703 ng·h/mL, the concentration peaked (Cmax) at 551 ng/mL and the Tmax came out at 0.083 h. In addition, in data set [1] (SD rats, IV, 1 mg/kg), the clearance is 25.2 mL/min/kg and the half-life was 1.11 h. Moreover, in data set [1] (SD rats, IV, 1 mg/kg, read-out: Vss), the Vd came to 2.31 L/kg. In data set [1] (SD rats, PO, 5 mg/kg), the AUC(0-inf) stood at 964 ng·h/mL, the AUC(0-t) is 707 ng·h/mL, the Cmax amounted to 76 ng/mL and the Tmax was determined as 4.05 h. The compound also had a half-life in data set [1] (SD rats, PO, 5 mg/kg) of 7.5 h. Further, in data set [1] (SD rats, PO, 5 mg/kg, read-out: F), the bioavailability stood at 20.1%. The peak level in data set [1] (no unit, species or route stated in b12 (7c value equals SD rats PO of Table 3)) (Cmax) was 76 ng/mL. The bioavailability in data set [1] (species and route not stated in b12 (7c value equals SD rats PO of Table 3), read-out: bioavailability (F)) is 20.1%. Further, the body weight result in data set [2] is on record as “no loss of body weight”. Besides, in the data set with HCT116 cells, the G2/M arrest result is on record as “induced G/2M arrest in a dose-dependent manner” and the apoptosis entry is reported as “did not cause apoptosis”. The “cyclin E and c-Myc levels” value with HCT116 and DLD1 cells (HCT116, 0, 10, 50, 100 nM) was “not affected”. In addition, in the data set on HCT116 and DLD1 cells (HCT116 and DLD1, 0, 10, 50, 100 nM), the “cyclin B1, c-Jun and p-c-Jun levels” value was “dose-dependent increase”.
